Several values for one entry are separate records, joined by “and”; a condition that tells them apart may be missing. Equal values may be shown once.

This assay deals with T1, human ALK5 (Homo sapiens, UniProt P36897).
T1 construct: human ALK5 (recombinant TGF β1 N-term GST-tagged, 80-end); GST (N); purchased
T1 sequence (P36897 80-503 limits assumed): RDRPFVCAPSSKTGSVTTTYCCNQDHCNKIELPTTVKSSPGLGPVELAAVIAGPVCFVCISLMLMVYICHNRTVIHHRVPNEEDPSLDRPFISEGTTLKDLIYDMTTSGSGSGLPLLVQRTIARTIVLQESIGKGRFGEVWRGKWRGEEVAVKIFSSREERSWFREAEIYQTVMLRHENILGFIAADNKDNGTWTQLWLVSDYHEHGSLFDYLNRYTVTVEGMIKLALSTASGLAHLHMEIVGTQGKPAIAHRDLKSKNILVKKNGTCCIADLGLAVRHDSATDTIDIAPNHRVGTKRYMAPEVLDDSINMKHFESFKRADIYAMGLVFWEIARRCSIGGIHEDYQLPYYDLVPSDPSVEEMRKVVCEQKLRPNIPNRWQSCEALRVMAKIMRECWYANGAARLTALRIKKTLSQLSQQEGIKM
The assay can be described thus: ADP-GLO Kinases assay of ALK5 enzymatic activity. It counts as biochemical. The note with it: purified recombinant human ALK5, TGFβ1 peptide substrate, pIC50 converted to pKi by Cheng-Prusoff, high ATP protocol (15 μM) for very potent compounds, 25° C. How it is done:
The enzymatic activity of compounds of the present invention was monitored measuring the formation of ADP using the ADP-GLO Kinases assay. Following the incubation of the purified enzyme, a substrate and ATP, the produced ADP was converted into ATP, which in turn was converted into light by Ultra-Glo Luciferase. The luminescent signal positively correlated with ADP amount and kinase activity. […] Compound and ALK5 kinase were mixed and incubated for 15 mins. […] After an incubation of 120 min, the reaction was stopped, and ADP production detected with ADP-Glo kit according to manufacturer's indications. […] After an incubation of 60 min, the kinase reaction was stopped, and ADP production detected with ADP-Glo kit according to manufacturer's indications. All reaction and incubation steps were performed at 25° C. and the assays were performed in 384-well format and validated using a selection of reference compounds tested in 11-point concentration-response curve. […] Results were expressed as pIC50 (negative logarithm of IC50) and subsequently converted to pKi (negative logarithm of […]) using the Cheng-Prusoff equation. The higher the value of pKi, the greater the inhibition of ALK5 activity.
Background: ADP-Glo turns the ADP formed in a reaction into a luminescent signal.
As for `CN1CCN(CCC(=O)Nc2cc(Nc3cc(-c4cc(Cl)ccc4F)nnc3SCCOCCO)ccn2)CC1` [Example 194, N-(4-{[6-(5-chloro-2-fluorophenyl)-3-{[2-(2-hydroxyethoxy)ethyl]sulfanyl}pyridazin-4-yl]amino}pyridin-2-yl)-3-(4-methylpiperazin-1-yl)propanamide], the Ki is at most 100 pM.

On to `CN1CCN(CCC(=O)Nc2cc(Nc3cc(-c4cc(Cl)ccc4F)nnc3OCC(O)CO)ccn2)CC1` (centres unmarked) [Example 78, N-(4-{[6-(5-chloro-2-fluorophenyl)-3-(2,3-dihydroxypropoxy)pyridazin-4-yl]amino}pyridin-2-yl)-3-(4-methylpiperazin-1-yl)propanamide], for which the Ki was at most 100 pM.

Take `Nc1cc(Nc2cc(-c3cc(Cl)ccc3F)nnc2OCC(F)(F)F)ccn1` [Example 49, N4-[6-(5-chloro-2-fluorophenyl)-3-(2,2,2-trifluoroethoxy)pyridazin-4-yl]pyridine-2,4-diamine]: the Ki was 398 to 3160 pM.

Regarding `CN1CCN(CCC(=O)Nc2cc(Nc3cc(-c4cc(Cl)ccc4F)nnc3O[C@H]3C[C@@H](CO)C3)ccn2)CC1` [Example 80, N-(4-{[6-(5-chloro-2-fluorophenyl)-3-[3-(hydroxymethyl)cyclobutoxy]pyridazin-4-yl]amino}pyridin-2-yl)-3-(4-methylpiperazin-1-yl)propanamide], the Ki is at most 100 pM.

For `C[C@@H]1CN(CCC(=O)Nc2cc(Nc3cc(-c4cc(Cl)ccc4F)nnc3SCC[Si](C)(C)C)ncn2)C[C@H](C)N1` [Example 195, N-(6-{[6-(5-chloro-2-fluorophenyl)-3-{[2-(trimethylsilyl)ethyl]sulfanyl}pyridazin-4-yl]amino}pyrimidin-4-yl)-3-(3,5-dimethylpiperazin-1-yl)propanamide], the Ki is 126 to 316 pM.

Consider `CN1C[C@@H]2C[C@H]1CN2CC(=O)Nc1cc(Nc2cc(-c3cc(Cl)ccc3F)nnc2OC[C@H]2C[C@@H](O)C2)ccn1` [Example 122, N-(4-{[6-(5-chloro-2-fluorophenyl)-3-[(3-hydroxycyclobutyl)methoxy]pyridazin-4-yl]amino}pyridin-2-yl)-2-[(1S,4S)-5-methyl-2,5-diazabicyclo[2.2.1]heptan-2-yl]acetamide], for which the Ki was at most 100 pM.

On to `COc1nnc(-c2cc(Cl)ccc2F)cc1Nc1ccnc(NC(=O)CCN2CCN(C)CC2)c1` [Example 47, N-(4-{[6-(5-chloro-2-fluorophenyl)-3-methoxypyridazin-4-yl]amino}pyridin-2-yl)-3-(4-methylpiperazin-1-yl)propanamide], for which the Ki was at most 100 pM.

`O=C(O)C1CCN([C@H]2C[C@@H](C(=O)Nc3cc(Nc4cc(-c5cc(Cl)ccc5F)nnc4SCCO)ccn3)C2)CC1` [Example 167, Cis 1-{3-[(4-{[6-(5-chloro-2-fluorophenyl)-3-[(2-hydroxyethyl)sulfanyl]pyridazin-4-yl]amino}pyridin-2-yl)carbamoyl]cyclobutyl}piperidine-4-carboxylic acid]: the Ki is 126 to 316 pM.

As to `CSc1nnc(-c2cc(Cl)ccc2F)cc1Nc1ccnc(NC(=O)CCN2CCN(CCN)CC2)c1` [Example 20, 3-[4-(2-aminoethyl)piperazin-1-yl]-N-(4-{[6-(5-chloro-2-fluorophenyl)-3-(methylsulfanyl)pyridazin-4-yl]amino}pyridin-2-yl)propanamide], the Ki is at most 100 pM.

`CN1CCN(CCC(=O)Nc2cc(Nc3cc(-c4cc(Cl)ccc4F)nnc3[S+](C)[O-])ccn2)CC1` (centres unmarked) [Example 17, N-(4-{[6-(5-chloro-2-fluorophenyl)-3-methanesulfinylpyridazin-4-yl]amino}pyridin-2-yl)-3-(4-methylpiperazin-1-yl)propanamide]: the Ki was 126 to 316 pM.

As for `CN1CCN(CCOc2ccc3c(Nc4cc(-c5cc(Cl)ccc5F)nnc4OCCN)ccnc3c2)CC1` [Example 5, N-[3-(2-aminoethoxy)-6-(5-chloro-2-fluorophenyl)pyridazin-4-yl]-7-[2-(4-methylpiperazin-1-yl)ethoxy]quinolin-4-amine], the Ki is 126 to 316 pM.

Take `CN1CCN(CCC(=O)Nc2cc(Nc3cc(-c4cc(Cl)ccc4F)nnc3OCc3cccc(O)c3)ccn2)CC1` [Example 81, N-(4-{[6-(5-chloro-2-fluorophenyl)-3-[(3-hydroxyphenyl)methoxy]pyridazin-4-yl]amino}pyridin-2-yl)-3-(4-methylpiperazin-1-yl)propanamide]: the Ki is at most 100 pM.

As to `CN1CCN(CCC(=O)Nc2cc(Nc3cc(-c4cc(Cl)ccc4F)nnc3SCC3CCCC(=O)O3)ccn2)CC1` (racemic) [Example 204, N-(4-{[6-(5-chloro-2-fluorophenyl)-3-{[(6-oxooxan-2-yl)methyl]sulfanyl}pyridazin-4-yl]amino}pyridin-2-yl)-3-(4-methylpiperazin-1-yl)propanamide], the Ki was at most 100 pM.

With `CN(C)CCOc1nnc(-c2cc(Cl)ccc2F)cc1Nc1ccnc(NC(=O)CCN2CCOCC2)c1` [Example 40, N-(4-{[6-(5-chloro-2-fluorophenyl)-3-[2-(dimethylamino)ethoxy]pyridazin-4-yl]amino}pyridin-2-yl)-3-(morpholin-4-yl)propanamide], the Ki was 126 to 316 pM and 398 to 3160 pM.

As for `CN1CCN([C@H]2C[C@@H](C(=O)Nc3cc(Nc4cc(-c5cc(Cl)ccc5F)nnc4N(C)CC4(C)CCOC4=O)ccn3)C2)CC1` (single isomer, unassigned) [Example 136, Cis N-(4-{[6-(5-chloro-2-fluorophenyl)-3-{methyl[(3-methyl-2-oxooxolan-3-yl)methyl]amino}pyridazin-4-yl]amino}pyridin-2-yl)-3-(4-methylpiperazin-1-yl)cyclobutane-1-carboxamide], the Ki is 126 to 316 pM.

As to `CN1CCN(CCC(=O)Nc2cc(Nc3cc(-c4cc(Cl)ccc4F)nnc3OC[C@H]3C[C@@](C)(O)C3)ccn2)CC1` [Example 123, N-(4-{[6-(5-chloro-2-fluorophenyl)-3-[(3-hydroxy-3-methylcyclobutyl)methoxy]pyridazin-4-yl]amino}pyridin-2-yl)-3-(4-methylpiperazin-1-yl)propanamide], the Ki is 126 to 316 pM.

`CN1CCN(CCC(=O)Nc2cc(Nc3cc(-c4cc(Cl)ccc4F)nnc3N3CC(C(=O)O)C3)ccn2)CC1` [Example 99, 1-[6-(5-chloro-2-fluorophenyl)-4-({2-[3-(4-methylpiperazin-1-yl)propanamido]pyridin-4-yl}amino)pyridazin-3-yl]azetidine-3-carboxylic acid]: the Ki was 126 to 316 pM.

Take `COCCOc1nnc(-c2cc(Cl)ccc2F)cc1Nc1ccnc(NC(=O)CCN2CCN(C)CC2)c1` [Example 31, N-(4-{[6-(5-chloro-2-fluorophenyl)-3-(2-methoxyethoxy)pyridazin-4-yl]amino}pyridin-2-yl)-3-(4-methylpiperazin-1-yl)propanamide]: the Ki is at most 100 pM.

Turning to `CN1CCCN(CCC(=O)Nc2cc(Nc3cc(-c4cc(Cl)ccc4F)nnc3SCCO)ccn2)CC1` [Example 84, N-(4-{[6-(5-chloro-2-fluorophenyl)-3-[(2-hydroxyethyl)sulfanyl]pyridazin-4-yl]amino}pyridin-2-yl)-3-(4-methyl-1,4-diazepan-1-yl)propanamide], the Ki is at most 100 pM.

`CN1CCN([C@H]2C[C@@H](C(=O)Nc3cc(Nc4cc(-c5cc(Cl)ccc5F)nnc4OC4CCOC4)ccn3)C2)CC1` (single isomer, unassigned) [Example 113, N-(4-{[6-(5-chloro-2-fluorophenyl)-3-(oxolan-3-yloxy)pyridazin-4-yl]amino}pyridin-2-yl)-3-(4-methylpiperazin-1-yl)cyclobutane-1-carboxamide]: the Ki is 126 to 316 pM.

With `CN1CCN(CCC(=O)Nc2cc(Nc3cc(-c4cc(Cl)ccc4F)nnc3OCCCS(C)(=O)=O)ccn2)CC1` [Example 7, N-(4-{[6-(5-chloro-2-fluorophenyl)-3-(3-methanesulfonylpropoxy)pyridazin-4-yl]amino}pyridin-2-yl)-3-(4-methylpiperazin-1-yl)propanamide], the Ki was at most 100 pM.

Take `O=C(Nc1cc(Nc2cc(-c3cc(Cl)ccc3F)nnc2SCCO)ccn1)[C@H]1C[C@@H](N2CCSCC2)C1` [Example 89, Cis N-(4-{[6-(5-chloro-2-fluorophenyl)-3-[(2-hydroxyethyl)sulfanyl]pyridazin-4-yl]amino}pyridin-2-yl)-3-(thiomorpholin-4-yl)cyclobutane-1-carboxamide]: the Ki was at most 100 pM.

As for `CN1CCC2(CCN(C(=O)Nc3cc(Nc4cc(-c5cc(Cl)ccc5F)nnc4SCCO)ccn3)CC2)C1` [Example 26, N-(4-{[6-(5-chloro-2-fluorophenyl)-3-[(2-hydroxyethyl)sulfanyl]pyridazin-4-yl]amino}pyridin-2-yl)-2-methyl-2,8-diazaspiro[4.5]decane-8-carboxamide], the Ki is at most 100 pM.

For orientation: Ki means the equilibrium dissociation constant of an inhibitor or competing ligand from its target.

(Values after patent US20250011299A1, “PYRIDAZINYL AMINO DERIVATIVES AS ALK5 INHIBITORS” (CHIESI FARMACEUTICI S.P.A., priority 2021, published 2025).)
